Results as given in ChEMBL document CHEMBL5154721, “Discovery of HDAC6-Selective Inhibitor NN-390 with in Vitro Efficacy in Group 3 Medulloblastoma” (J Med Chem, 2022).
Active and inactive are the calls of the source. The rule behind the calls is not given here.

Key:
[1] = molecular target: T1, Protein deacetylase HDAC6 (Homo sapiens) (UniProt Q9UBN7); assay: Inhibition of full length human recombinant HDAC6 in human MV4-11 cells assessed as acetylation of histone H3 at 5 uM by Western blot analysis; assay type: cell-based; settings: time 6.0 hrs
T1 sequence (whole entry): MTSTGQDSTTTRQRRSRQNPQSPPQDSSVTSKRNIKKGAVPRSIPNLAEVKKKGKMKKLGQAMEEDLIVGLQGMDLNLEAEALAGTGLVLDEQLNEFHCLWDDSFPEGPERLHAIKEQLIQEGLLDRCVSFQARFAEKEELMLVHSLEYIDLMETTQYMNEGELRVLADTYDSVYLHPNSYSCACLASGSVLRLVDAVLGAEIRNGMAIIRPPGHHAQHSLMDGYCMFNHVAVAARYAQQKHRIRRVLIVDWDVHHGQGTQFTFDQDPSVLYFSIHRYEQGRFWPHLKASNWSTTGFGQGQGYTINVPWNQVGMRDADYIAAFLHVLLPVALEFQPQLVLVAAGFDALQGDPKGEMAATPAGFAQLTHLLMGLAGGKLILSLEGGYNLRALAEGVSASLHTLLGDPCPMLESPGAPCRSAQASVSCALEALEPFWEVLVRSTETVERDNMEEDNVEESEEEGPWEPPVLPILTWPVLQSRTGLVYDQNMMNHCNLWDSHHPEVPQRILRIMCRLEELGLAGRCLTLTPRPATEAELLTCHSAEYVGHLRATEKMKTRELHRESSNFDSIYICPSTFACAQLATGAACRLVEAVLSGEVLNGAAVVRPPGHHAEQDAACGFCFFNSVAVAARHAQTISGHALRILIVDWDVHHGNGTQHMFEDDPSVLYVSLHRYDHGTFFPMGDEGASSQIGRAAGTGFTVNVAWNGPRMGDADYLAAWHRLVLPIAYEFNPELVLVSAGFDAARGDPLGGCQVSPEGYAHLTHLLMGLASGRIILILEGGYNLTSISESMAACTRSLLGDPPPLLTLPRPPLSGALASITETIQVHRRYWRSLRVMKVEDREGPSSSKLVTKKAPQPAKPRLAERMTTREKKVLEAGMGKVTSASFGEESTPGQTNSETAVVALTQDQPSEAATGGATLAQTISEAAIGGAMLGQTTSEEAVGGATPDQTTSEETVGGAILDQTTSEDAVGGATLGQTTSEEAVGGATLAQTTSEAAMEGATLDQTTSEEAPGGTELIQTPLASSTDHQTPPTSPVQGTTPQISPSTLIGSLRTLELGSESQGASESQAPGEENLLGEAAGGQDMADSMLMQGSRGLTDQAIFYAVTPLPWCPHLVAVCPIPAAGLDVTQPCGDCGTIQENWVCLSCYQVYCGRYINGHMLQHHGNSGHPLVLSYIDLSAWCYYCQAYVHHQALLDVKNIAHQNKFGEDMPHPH

MV4-11 [2] = assay: cells; assay type: functional, cell-based; settings: Homo sapiens, MV4-11, 72 h
MM1.S = assay: Cytotoxicity against human MM1.S cells assessed as inhibition of cell growth incubated for 72 hrs measured by spectrophotometer analysis; assay type: functional, cell-based
[3] = molecular target: T2, Polyamine deacetylase HDAC10 (Homo sapiens, UniProt Q969S8); assay: Inhibition of full length human recombinant HDAC10 expressed in Sf9 baculovirus system using FAM-labeled acetylated peptide as substrate by measuring fluorescence intensity
T2 sequence (Q969S8 whole entry): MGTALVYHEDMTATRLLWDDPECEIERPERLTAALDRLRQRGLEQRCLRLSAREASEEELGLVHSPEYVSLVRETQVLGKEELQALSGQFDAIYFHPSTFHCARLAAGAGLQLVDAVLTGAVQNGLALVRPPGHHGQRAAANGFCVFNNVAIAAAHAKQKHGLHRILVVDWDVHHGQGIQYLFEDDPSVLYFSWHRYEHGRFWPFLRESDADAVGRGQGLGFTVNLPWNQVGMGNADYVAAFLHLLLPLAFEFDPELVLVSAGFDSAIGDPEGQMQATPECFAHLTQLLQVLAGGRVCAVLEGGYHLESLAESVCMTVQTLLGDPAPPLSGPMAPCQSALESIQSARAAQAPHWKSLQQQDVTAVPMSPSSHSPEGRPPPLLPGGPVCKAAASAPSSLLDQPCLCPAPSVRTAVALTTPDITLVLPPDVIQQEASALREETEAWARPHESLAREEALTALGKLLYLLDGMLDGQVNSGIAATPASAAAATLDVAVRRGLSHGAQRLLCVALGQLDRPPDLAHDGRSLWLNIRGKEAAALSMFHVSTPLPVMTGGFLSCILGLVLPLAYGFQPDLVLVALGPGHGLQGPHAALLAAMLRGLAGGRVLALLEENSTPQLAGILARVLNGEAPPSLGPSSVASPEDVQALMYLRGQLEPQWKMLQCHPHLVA

[4] = Competitive inhibition of N-terminal His-SUMO tagged zebra fish recombinant HDAC6 catalytic domain 2 transfected with pET28b(+) vector in Escherichia coli BL21 (DE3) RILP cells incubated for 10 mins followed by addition of FITC-M344 measured af ter 10 mins by fluorescence polarization assay; design: species or system Danio rerio
[5] = Cytotoxicity against human fetal neuronal stem cells assessed as inhibition of cell growth incubated for 72 hrs measured by spectrophotometer analysis; assay type: toxicity, cell-based, NSC
[6] = molecular target: T1, Protein deacetylase HDAC6 (Homo sapiens); assay: Potency index, ratio of test compound residence time to ricolinostat residence time in full length HDAC6-NanoLuc fusion protein (unknown origin) expressed in HeLa cells by NanoBRET assay; assay type: cell-based
MV4-11 [7] = assay: Induction of apoptosis in human MV4-11 cells assessed as late apoptotic cells at 0.25 uM after 24 hrs by Annexin V/PI staining based flow cytometric analysis (Rvb=8.13%); assay type: functional
MV4-11 [8] = assay: Induction of apoptosis in human MV4-11 cells assessed as viable cells at 0.75 uM after 24 hrs by Annexin V/PI staining based flow cytometric analysis (Rvb=58.28%); assay type: functional; settings: read-out: Activity
MV4-11 [9] = assay: Induction of apoptosis in human MV4-11 cells assessed as early apoptotic cells at 0.75 uM after 24 hrs by Annexin V/PI staining based flow cytometric analysis (Rvb=2%); assay type: functional
MV4-11 [10] = assay: Induction of apoptosis in human MV4-11 cells assessed as late apoptotic cells at 0.75 uM after 24 hrs by Annexin V/PI staining based flow cytometric analysis (Rvb=2%); assay type: functional
MV4-11 [11] = assay: Induction of apoptosis in human MV4-11 cells assessed as early apoptotic cells at 1 uM after 24 hrs by Annexin V/PI staining based flow cytometric analysis (Rvb=2%); assay type: functional
MV4-11 [12] = assay: Induction of apoptosis in human MV4-11 cells assessed as late apoptotic cells at 1 uM after 24 hrs by Annexin V/PI staining based flow cytometric analysis (Rvb=2%); assay type: functional
MV4-11 [13] = assay: Induction of apoptosis in human MV4-11 cells assessed as late apoptotic cells at 2 uM after 24 hrs by Annexin V/PI staining based flow cytometric analysis (Rvb=2%); assay type: functional
[14] = Cytotoxicity against human HD-MB03 cells assessed as inhibition of cell growth incubated for 72 hrs measured by spectrophotometer analysis; assay type: functional, cell-based; settings: HD-MB03, 72 h

For `CC(C)N(Cc1ccc(C(=O)NO)cc1)S(=O)(=O)c1cc(F)c(F)c(F)c1F`, the inhibition [1] was “Active”, the IC50 (MV4-11 [2]) was 1190 nM and the IC50 (MM1.S) was 1380 nM. The IC50 [3] was > 5 µM, the IC50 [4] was 139 nM and the IC50 at 72 h [5] was 5.76 µM. It also gave a fold change (FC) [6] of 2, an Activity (MV4-11 [7]) of 9% and a viability at 0.75 µM (MV4-11 [8]) of 85.7%. It also gave an Activity (MV4-11 [9]) of 2.28%, an Activity (MV4-11 [10]) of 7.81% and an Activity (MV4-11 [11]) of 3.32%. It also gave an Activity (MV4-11 [12]) of 10.88%, an Activity (MV4-11 [13]) of 23.4% and an IC50 [14] of 130 nM.
